Test results taken from PubChem BioAssay AID1963439 (Molecular Pharmacology Branch, DTP, NCI, 2024).
Several values for one entry are separate records, joined by “and”; a condition that tells them apart may be missing. Identical values can stand only once.

System: NCI-H196 complex spheroids with HUVEC/MSC, growth % T/C
Experiment: Anticancer human tumor NCI-H196 cell line growth inhibition [Asc];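 note: spheroids exposed to compound for 7 days before measurement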;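 for viability, T/C: 100% = DMSO vehicle control wells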
Settings: for viability, T/C: stronger effect = lower value
Procedure, shortened: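 Concentration series start at each agent's clinical Cmax, or at 10 microM when none is established, and drop in half-log steps; agents are applied alone or together to complex spheroids built with HUVEC and hMSC.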

[1] = curve of first compound, second compound 0.1 µM
[2] = curve of first compound, second compound 0.316 µM
[3] = curve of first compound, second compound 1 µM
[4] = second compound 0.1 µM, first compound 0.00949 µM
[5] = second compound 0.1 µM, first compound 0.03 µM
[6] = second compound 0.1 µM, first compound 0.0949 µM
[7] = second compound 0.1 µM, first compound 0.3 µM
[8] = second compound 0.316 µM, first compound 0.00949 µM
[9] = second compound 0.316 µM, first compound 0.03 µM
[10] = second compound 0.316 µM, first compound 0.0949 µM
[11] = second compound 0.316 µM, first compound 0.3 µM
[12] = second compound 1 µM, first compound 0.00949 µM
[13] = second compound 1 µM, first compound 0.03 µM
[14] = second compound 1 µM, first compound 0.0949 µM
[15] = second compound 1 µM, first compound 0.3 µM
[16] = curve of first compound, second compound 0.01 µM
[17] = curve of first compound, second compound 0.0316 µM

What does the source list for `Cc1nc(N2CCC3(CC2)COC(C)C3N)c(CO)nc1Sc1ccnc(N)c1Cl` (stereo unspecified) + Cc1c(S(C)(=O)=O)c(-c2cc(F)cc(N3CCN(c4ccc(NS(=O)(=O)c5ccc(NC(CCN6CCC(C(=O)OCCCP(=O)(O)O)CC6)CSc6ccccc6)c(S(=O)(=O)C(F)(F)F)c5)cc4)CC3)c2)c(-c2ccc(Cl)cc2)n1C(C)C?
IC50 [1]: 1350 nM; IC50 [2]: 1140 nM; IC50 [3]: 1150 nM; IC50 (curve of first compound, second compound 3.16 µM): 930 nM; IC50 (curve of first compound, second compound 10 µM): 1170 nM; viability, T/C [4]: 111%; viability, T/C [5]: 118%; viability, T/C [6]: 96.2%; viability, T/C [7]: 87.8%; viability, T/C (second compound 0.1 µM, first compound 0.949 µM): 60.1%; viability, T/C (second compound 0.1 µM, first compound 3 µM): 26.3%; viability, T/C [8]: 93.4%; viability, T/C [9]: 102%; viability, T/C [10]: 109%; viability, T/C [11]: 93.8%; viability, T/C (second compound 0.316 µM, first compound 0.949 µM): 55.2%; viability, T/C (second compound 0.316 µM, first compound 3 µM): 24%; viability, T/C [12]: 93.1%; viability, T/C [13]: 97.9%; viability, T/C [14]: 98.1%; viability, T/C [15]: 87%; viability, T/C (second compound 1 µM, first compound 0.949 µM): 55.4%; viability, T/C (second compound 1 µM, first compound 3 µM): 24%; viability, T/C (second compound 3.16 µM, first compound 0.00949 µM): 93.9%; viability, T/C (second compound 3.16 µM, first compound 0.03 µM): 97.8%; viability, T/C (second compound 3.16 µM, first compound 0.0949 µM): 103%; viability, T/C (second compound 3.16 µM, first compound 0.3 µM): 84.9%; viability, T/C (second compound 3.16 µM, first compound 0.949 µM): 49.9%; viability, T/C (second compound 3.16 µM, first compound 3 µM): 22.9%; viability, T/C (second compound 10 µM, first compound 0.00949 µM): 84.7%; viability, T/C (second compound 10 µM, first compound 0.03 µM): 93.7%; viability, T/C (second compound 10 µM, first compound 0.0949 µM): 88.5%; viability, T/C (second compound 10 µM, first compound 0.3 µM): 78%; viability, T/C (second compound 10 µM, first compound 0.949 µM): 55.9%; viability, T/C (second compound 10 µM, first compound 3 µM): 24.7%

Which IC50 [16] does the source give for `NC(=O)C(=Cn1cnc(-c2cc(C(F)(F)F)cc(C(F)(F)F)c2)n1)c1cncnc1` + CNC(C)C(=O)NC1CN(S(=O)(=O)c2cccc(S(=O)(=O)N3CCC4CCC(C(=O)NC(c5ccccc5)c5ccccc5)N4C(=O)C(NC(=O)C(C)NC)C3)c2)CCC2CCC(C(=O)NC(c3ccccc3)c3ccccc3)N2C1=O here?
The IC50 was under 0.949 nM.

And the IC50 [17]?
Its IC50 is under 0.949 nM.

What about the IC50 [1] of the same molecule?
Its IC50 is under 0.949 nM.

And the IC50 [2]?
Its IC50 is under 0.949 nM.

And the IC50 [3]?
The IC50 was under 0.949 nM.

And the viability, T/C (second compound 0.01 µM, first compound 0.000949 µM)?
The viability, T/C was 9.08%.

What about the viability, T/C (second compound 0.01 µM, first compound 0.003 µM) of the same molecule?
The viability, T/C was 6.89%.

What about the viability, T/C (second compound 0.01 µM, first compound 0.00949 µM) of the same molecule?
The viability, T/C was 9.23%.

And the viability, T/C (second compound 0.01 µM, first compound 0.03 µM)?
The viability, T/C was 5%.

What about the viability, T/C (second compound 0.01 µM, first compound 0.0949 µM) of the same molecule?
Its viability, T/C is 6.27%.

What about the viability, T/C (second compound 0.01 µM, first compound 0.3 µM) of the same molecule?
The viability, T/C was 3.41%.

And the viability, T/C (second compound 0.0316 µM, first compound 0.000949 µM)?
The viability, T/C was 5.94%.

What about the viability, T/C (second compound 0.0316 µM, first compound 0.003 µM) of the same molecule?
The viability, T/C was 4.91%.

What about the viability, T/C (second compound 0.0316 µM, first compound 0.00949 µM) of the same molecule?
Its viability, T/C is 5.48%.

And the viability, T/C (second compound 0.0316 µM, first compound 0.03 µM)?
Its viability, T/C is 5.12%.

And the viability, T/C (second compound 0.0316 µM, first compound 0.0949 µM)?
Its viability, T/C is 4.08%.

What about the viability, T/C (second compound 0.0316 µM, first compound 0.3 µM) of the same molecule?
Its viability, T/C is 1.99%.

What about the viability, T/C (second compound 0.1 µM, first compound 0.000949 µM) of the same molecule?
Its viability, T/C is 3.66%.

And the viability, T/C (second compound 0.1 µM, first compound 0.003 µM)?
The viability, T/C was 3.77%.

And the viability, T/C [4]?
Its viability, T/C is 3.89%.

And the viability, T/C [5]?
Its viability, T/C is 4.03%.

What about the viability, T/C [6] of the same molecule?
The viability, T/C was 3.01%.

What about the viability, T/C [7] of the same molecule?
The viability, T/C was 1.56%.

And the viability, T/C (second compound 0.316 µM, first compound 0.000949 µM)?
The viability, T/C was 3.76%.

And the viability, T/C (second compound 0.316 µM, first compound 0.003 µM)?
The viability, T/C was 2.6%.

And the viability, T/C [8]?
The viability, T/C was 3.46%.

And the viability, T/C [9]?
Its viability, T/C is 3.21%.

And the viability, T/C [10]?
Its viability, T/C is 1.59%.

And the viability, T/C [11]?
The viability, T/C was 1.68%.

What about the viability, T/C (second compound 1 µM, first compound 0.000949 µM) of the same molecule?
The viability, T/C was 2.91%.

And the viability, T/C (second compound 1 µM, first compound 0.003 µM)?
Its viability, T/C is 3.81%.

And the viability, T/C [12]?
Its viability, T/C is 3.53%.

What about the viability, T/C [13] of the same molecule?
The viability, T/C was 5.05%.

And the viability, T/C [14]?
The viability, T/C was 2.15%.

What about the viability, T/C [15] of the same molecule?
Its viability, T/C is 1.55%.

With `C=CC(=O)N1CCN(c2nc(=O)n(-c3c(C)ccnc3C(C)C)c3nc(-c4c(O)cccc4F)c(F)cc23)C(C)C1` (stereo unspecified) + CNC(C)C(=O)NC1CN(S(=O)(=O)c2cccc(S(=O)(=O)N3CCC4CCC(C(=O)NC(c5ccccc5)c5ccccc5)N4C(=O)C(NC(=O)C(C)NC)C3)c2)CCC2CCC(C(=O)NC(c3ccccc3)c3ccccc3)N2C1=O as the molecule, how does the IC50 [16] read?
The IC50 was under 31.6 nM.

What about the IC50 [17] of the same molecule?
Its IC50 is under 31.6 nM.

And the IC50 [1]?
The IC50 was under 31.6 nM.

What about the IC50 [2] of the same molecule?
The IC50 was under 31.6 nM.

What about the IC50 [3] of the same molecule?
The IC50 was under 31.6 nM.

What about the viability, T/C (second compound 0.01 µM, first compound 0.0316 µM) of the same molecule?
Its viability, T/C is 8.2%.

And the viability, T/C (second compound 0.01 µM, first compound 0.1 µM)?
Its viability, T/C is 7.68%.

What about the viability, T/C (second compound 0.01 µM, first compound 0.316 µM) of the same molecule?
Its viability, T/C is 5.38%.

What about the viability, T/C (second compound 0.01 µM, first compound 1 µM) of the same molecule?
Its viability, T/C is 6.44%.

What about the viability, T/C (second compound 0.01 µM, first compound 3.16 µM) of the same molecule?
The viability, T/C was 8.71%.

What about the viability, T/C (second compound 0.01 µM, first compound 10 µM) of the same molecule?
The viability, T/C was 9.87%.

What about the viability, T/C (second compound 0.0316 µM, first compound 0.0316 µM) of the same molecule?
The viability, T/C was 3.84%.

And the viability, T/C (second compound 0.0316 µM, first compound 0.1 µM)?
Its viability, T/C is 5.12%.

And the viability, T/C (second compound 0.0316 µM, first compound 0.316 µM)?
The viability, T/C was 5.38%.

And the viability, T/C (second compound 0.0316 µM, first compound 1 µM)?
The viability, T/C was 8.69%.

What about the viability, T/C (second compound 0.0316 µM, first compound 3.16 µM) of the same molecule?
The viability, T/C was 6.93%.

What about the viability, T/C (second compound 0.0316 µM, first compound 10 µM) of the same molecule?
Its viability, T/C is 7.56%.

What about the viability, T/C (second compound 0.1 µM, first compound 0.0316 µM) of the same molecule?
The viability, T/C was 3.27%.

And the viability, T/C (second compound 0.1 µM, first compound 0.1 µM)?
The viability, T/C was 3.83%.

And the viability, T/C (second compound 0.1 µM, first compound 0.316 µM)?
The viability, T/C was 3.69%.

What about the viability, T/C (second compound 0.1 µM, first compound 1 µM) of the same molecule?
The viability, T/C was 4.2%.

And the viability, T/C (second compound 0.1 µM, first compound 3.16 µM)?
The viability, T/C was 7.47%.

What about the viability, T/C (second compound 0.1 µM, first compound 10 µM) of the same molecule?
Its viability, T/C is 9.85%.

And the viability, T/C (second compound 0.316 µM, first compound 0.0316 µM)?
The viability, T/C was 3.58%.

And the viability, T/C (second compound 0.316 µM, first compound 0.1 µM)?
The viability, T/C was 3.64%.

What about the viability, T/C (second compound 0.316 µM, first compound 0.316 µM) of the same molecule?
The viability, T/C was 6.15%.

And the viability, T/C (second compound 0.316 µM, first compound 1 µM)?
The viability, T/C was 3.67%.

And the viability, T/C (second compound 0.316 µM, first compound 3.16 µM)?
Its viability, T/C is 4.47%.

What about the viability, T/C (second compound 0.316 µM, first compound 10 µM) of the same molecule?
Its viability, T/C is 6.52%.

And the viability, T/C (second compound 1 µM, first compound 0.0316 µM)?
The viability, T/C was 3.22%.

And the viability, T/C (second compound 1 µM, first compound 0.1 µM)?
The viability, T/C was 3.89%.

What about the viability, T/C (second compound 1 µM, first compound 0.316 µM) of the same molecule?
The viability, T/C was 3.25%.

What about the viability, T/C (second compound 1 µM, first compound 1 µM) of the same molecule?
The viability, T/C was 3.51%.

And the viability, T/C (second compound 1 µM, first compound 3.16 µM)?
The viability, T/C was 5.33%.

And the viability, T/C (second compound 1 µM, first compound 10 µM)?
Its viability, T/C is 9.94%.

Which viability, T/C (compound 0.0316 µM) does the source give for `C=C(F)C(=O)N1CCN(c2nc(OCC3CCCN3C)nc3c2CCN(c2cccc4cccc(Cl)c24)C3)CC1CC#N` (stereo unspecified) here?
Its viability, T/C is 95.2% and 99.4% and 108%.

And the viability, T/C (compound 0.1 µM)?
Its viability, T/C is 109% and 99.9% and 101%.

What about the viability, T/C (compound 0.316 µM) of the same molecule?
Its viability, T/C is 100% and 102% and 113%.

And the viability, T/C (compound 1 µM)?
The viability, T/C was 96.1% and 103% and 109%.

And the viability, T/C (compound 3.16 µM)?
The viability, T/C was 94.2% and 103% and 111%.

And the IC50 (curve of compound)?
The IC50 was > 10000 nM and 5950 nM.
